{
  "source": "ChEMBL document CHEMBL3880421",
  "about": "“Indazole compounds and pharmaceutical compositions for inhibiting protein kinases, and methods for their use” (2003)",
  "data": [
    {"assay": "Antiproliferative activity against VEGF-stimulated HUVEC cells assessed as reduction in cell viability at 10 nM preincubated for 1 hr followed by addition of VEGF measured after 72 hrs by MTT assay", "format": "functional", "conditions": "Homo sapiens", "units": {"inhibition at 0.01 µM": "%"}, "values": [
      {"smiles": "O=C(Nc1cccc(C(=O)c2ccc3c(/C=C/c4ccccc4)n[nH]c3c2)c1)C(=O)C1=CCCCC1", "inhibition at 0.01 µM": 45},
      {"smiles": "O=C(Cc1ccccc1)C(=O)Nc1cccc(Nc2ccc3c(/C=C/c4ccccc4)n[nH]c3c2)c1", "inhibition at 0.01 µM": 11},
      {"smiles": "O=C(Nc1cccc(Nc2ccc3c(/C=C/c4ccccc4)n[nH]c3c2)c1)C1CC2C=CCC(C2)C1", "note": "(stereo not drawn)", "inhibition at 0.01 µM": -17},
      {"smiles": "O=C(Cc1cc(F)cc(F)c1)Nc1cccc(Oc2ccc3c(/C=C/c4ccccc4)n[nH]c3c2)c1", "inhibition at 0.01 µM": 80},
      {"smiles": "Cn1cnc(CC(=O)Nc2cccc(Nc3ccc4c(/C=C/c5ccccc5)n[nH]c4c3)c2)c1", "inhibition at 0.01 µM": -17},
      {"smiles": "Cc1ccc(CCC(=O)Nc2cccc(Oc3ccc4c(/C=C/c5ccccc5)n[nH]c4c3)c2)cc1", "inhibition at 0.01 µM": 70},
      {"smiles": "CN1CC(C(=O)Nc2cccc(Nc3ccc4c(/C=C/c5ccccc5)n[nH]c4c3)c2)CC1=O", "note": "(stereo not drawn)", "inhibition at 0.01 µM": 20},
      {"smiles": "O=C(/C=C/C(=O)Nc1cccc(Nc2ccc3c(/C=C/c4ccccc4)n[nH]c3c2)c1)NCC1CC1", "inhibition at 0.01 µM": 13},
      {"smiles": "CC(C)CC(O)C(=O)Nc1cccc(C(=O)c2ccc3c(/C=C/c4ccccc4)n[nH]c3c2)c1", "note": "(stereo not drawn)", "inhibition at 0.01 µM": 47},
      {"smiles": "CCNc1ccccc1C(=O)Nc1cccc(C(=O)c2ccc3c(/C=C/c4ccccc4)n[nH]c3c2)c1", "inhibition at 0.01 µM": 54},
      {"smiles": "CCNc1ccccc1C(=O)Nc1cccc(Oc2ccc3c(/C=C/c4ccccc4)n[nH]c3c2)c1", "inhibition at 0.01 µM": 85},
      {"smiles": "O=C(Nc1cccc(Oc2ccc3c(/C=C/c4ccccc4)n[nH]c3c2)c1)C1C[C@H]2C=C[C@H]1C2", "note": "(stereo partly drawn)", "inhibition at 0.01 µM": 82},
      {"smiles": "O=C(Cc1cc(F)ccc1F)Nc1cccc(Oc2ccc3c(/C=C/c4ccccc4)n[nH]c3c2)c1", "inhibition at 0.01 µM": 91},
      {"smiles": "Cn1cnc(CC(=O)Nc2cccc(C(=O)c3ccc4c(/C=C/c5ccccc5)n[nH]c4c3)c2)c1", "inhibition at 0.01 µM": 31},
      {"smiles": "Cc1ccc(C2(C(=O)Nc3cccc(Nc4ccc5c(/C=C/c6ccccc6)n[nH]c5c4)c3)CC2)cc1", "inhibition at 0.01 µM": 2},
      {"smiles": "C/C(=C\\C(=O)Nc1cccc(Oc2ccc3c(/C=C/c4ccccc4)n[nH]c3c2)c1)c1ccccc1C", "inhibition at 0.01 µM": 52},
      {"smiles": "O=C(c1cccc(NC(=O)c2cc(=O)cco2)c1)c1ccc2c(/C=C/c3ccccc3)n[nH]c2c1", "inhibition at 0.01 µM": -13},
      {"smiles": "CC(=O)N1CCCC1C(=O)Nc1cccc(Oc2ccc3c(/C=C/c4ccccc4)n[nH]c3c2)c1", "note": "(stereo not drawn)", "inhibition at 0.01 µM": 19},
      {"smiles": "CC1(C)OC(=O)CC1C(=O)Nc1cccc(Nc2ccc3c(/C=C/c4ccccc4)n[nH]c3c2)c1", "note": "(stereo not drawn)", "inhibition at 0.01 µM": 16},
      {"smiles": "Cc1ccc(CCC(=O)Nc2cccc(Nc3ccc4c(/C=C/c5ccccc5)n[nH]c4c3)c2)cc1", "inhibition at 0.01 µM": 29},
      {"smiles": "O=C(Nc1cccc(Oc2ccc3c(/C=C/c4ccccc4)n[nH]c3c2)c1)C1CC2C=CC1CC2", "note": "(stereo not drawn)", "inhibition at 0.01 µM": 13},
      {"smiles": "C[C@@H](CC(=O)Nc1cccc(Oc2ccc3c(/C=C/c4ccccc4)n[nH]c3c2)c1)c1ccccc1", "inhibition at 0.01 µM": 42},
      {"smiles": "CC(=O)N1CCCC1C(=O)Nc1cccc(C(=O)c2ccc3c(/C=C/c4ccccc4)n[nH]c3c2)c1", "note": "(stereo not drawn)", "inhibition at 0.01 µM": 10},
      {"smiles": "CC(C)c1ccccc1C(=O)Nc1cccc(Oc2ccc3c(/C=C/c4ccccc4)n[nH]c3c2)c1", "inhibition at 0.01 µM": 35},
      {"smiles": "O=C(c1cccc(NC(=O)C2CCCO2)c1)c1ccc2c(/C=C/c3ccccc3)n[nH]c2c1", "note": "(stereo not drawn)", "inhibition at 0.01 µM": 18},
      {"smiles": "O=C(Nc1cccc(Nc2ccc3c(/C=C/c4ccccc4)n[nH]c3c2)c1)c1cc(=O)[nH]c(=O)[nH]1", "inhibition at 0.01 µM": 12},
      {"smiles": "O=C(c1cccc(NC(=O)C(O)c2ccccc2)c1)c1ccc2c(/C=C/c3ccccc3)n[nH]c2c1", "note": "(stereo not drawn)", "inhibition at 0.01 µM": 3},
      {"smiles": "CC(C)=NOC(C)C(=O)Nc1cccc(Oc2ccc3c(/C=C/c4ccccc4)n[nH]c3c2)c1", "note": "(stereo not drawn)", "inhibition at 0.01 µM": 80},
      {"smiles": "C/C=C(\\C)C(=O)Nc1cccc(Nc2ccc3c(/C=C/c4ccccc4)n[nH]c3c2)c1", "inhibition at 0.01 µM": 98},
      {"smiles": "CC(=O)N1CCC[C@@H]1C(=O)Nc1cccc(Nc2ccc3c(/C=C/c4ccccc4)n[nH]c3c2)c1", "inhibition at 0.01 µM": -5},
      {"smiles": "O=C(c1cccc(NC(=O)C2CCOC2)c1)c1ccc2c(/C=C/c3ccccc3)n[nH]c2c1", "note": "(stereo not drawn)", "inhibition at 0.01 µM": 12},
      {"smiles": "CO[C@H](C(=O)Nc1cccc(Oc2ccc3c(/C=C/c4ccccc4)n[nH]c3c2)c1)c1ccccc1", "inhibition at 0.01 µM": 30},
      {"smiles": "O=C(Nc1cccc(C(=O)c2ccc3c(/C=C/c4ccccc4)n[nH]c3c2)c1)c1ccc(=O)oc1", "inhibition at 0.01 µM": -62},
      {"smiles": "CC(C)CC(=O)C(=O)Nc1cccc(Nc2ccc3c(/C=C/c4ccccc4)n[nH]c3c2)c1", "inhibition at 0.01 µM": 11},
      {"smiles": "O=C(Cn1ccc2ccccc21)Nc1cccc(C(=O)c2ccc3c(/C=C/c4ccccc4)n[nH]c3c2)c1", "inhibition at 0.01 µM": -11},
      {"smiles": "Cc1cc(C(=O)Nc2cccc(Nc3ccc4c(/C=C/c5ccccc5)n[nH]c4c3)c2)nn1C", "inhibition at 0.01 µM": 95},
      {"smiles": "Cc1cc(C(=O)Nc2cccc(C(=O)c3ccc4c(/C=C/c5ccccc5)n[nH]c4c3)c2)oc(=O)c1", "inhibition at 0.01 µM": 64},
      {"smiles": "Cc1nc(S)sc1CC(=O)Nc1cccc(Oc2ccc3c(/C=C/c4ccccc4)n[nH]c3c2)c1", "inhibition at 0.01 µM": 45},
      {"smiles": "CC(C)[C@@H](O)C(=O)Nc1cccc(Nc2ccc3c(/C=C/c4ccccc4)n[nH]c3c2)c1", "inhibition at 0.01 µM": 3},
      {"smiles": "CC(C)CC(O)C(=O)Nc1cccc(Nc2ccc3c(/C=C/c4ccccc4)n[nH]c3c2)c1", "note": "(stereo not drawn)", "inhibition at 0.01 µM": 25},
      {"smiles": "O=C(Cc1c(F)cccc1F)Nc1cccc(Oc2ccc3c(/C=C/c4ccccc4)n[nH]c3c2)c1", "inhibition at 0.01 µM": 93},
      {"smiles": "CC1(C)OC(=O)[C@H](CC(=O)Nc2cccc(Nc3ccc4c(/C=C/c5ccccc5)n[nH]c4c3)c2)O1", "inhibition at 0.01 µM": 20},
      {"smiles": "CN(C)C(=S)SCC(=O)Nc1cccc(Nc2ccc3c(/C=C/c4ccccc4)n[nH]c3c2)c1", "inhibition at 0.01 µM": 32},
      {"smiles": "CN1CCC=C(C(=O)Nc2cccc(Nc3ccc4c(/C=C/c5ccccc5)n[nH]c4c3)c2)C1", "inhibition at 0.01 µM": 0},
      {"smiles": "CN1CSCCC1C(=O)Nc1cccc(C(=O)c2ccc3c(/C=C/c4ccccc4)n[nH]c3c2)c1", "note": "(stereo not drawn)", "inhibition at 0.01 µM": 8},
      {"smiles": "CN1CCC=C(C(=O)Nc2cccc(Oc3ccc4c(/C=C/c5ccccc5)n[nH]c4c3)c2)C1", "inhibition at 0.01 µM": 43},
      {"smiles": "CC(C)c1ccccc1C(=O)Nc1cccc(C(=O)c2ccc3c(/C=C/c4ccccc4)n[nH]c3c2)c1", "inhibition at 0.01 µM": 51},
      {"smiles": "CC(C)C(=O)Nc1cccc(Oc2ccc3c(/C=C/c4ccccc4)n[nH]c3c2)c1", "inhibition at 0.01 µM": 57},
      {"smiles": "O=C(Cc1c(F)cccc1F)Nc1cccc(C(=O)c2ccc3c(/C=C/c4ccccc4)n[nH]c3c2)c1", "inhibition at 0.01 µM": 81},
      {"smiles": "CC1(C)C(C(=O)Nc2cccc(C(=O)c3ccc4c(/C=C/c5ccccc5)n[nH]c4c3)c2)C1(C)C", "inhibition at 0.01 µM": 51},
      {"smiles": "Cc1cc(C(=O)Nc2cccc(Oc3ccc4c(/C=C/c5ccccc5)n[nH]c4c3)c2)oc(=O)c1", "inhibition at 0.01 µM": 83},
      {"smiles": "CC1CC1C(=O)Nc1cccc(C(=O)c2ccc3c(/C=C/c4ccccc4)n[nH]c3c2)c1", "note": "(stereo not drawn)", "inhibition at 0.01 µM": 96},
      {"smiles": "O=C(c1cccc(NC(=O)C2C[C@H]3C=C[C@H]2C3)c1)c1ccc2c(/C=C/c3ccccc3)n[nH]c2c1", "note": "(stereo partly drawn)", "inhibition at 0.01 µM": 44},
      {"smiles": "CC(=O)N1CCC[C@@H]1C(=O)Nc1cccc(Oc2ccc3c(/C=C/c4ccccc4)n[nH]c3c2)c1", "inhibition at 0.01 µM": 20},
      {"smiles": "O=C(Nc1cccc(Oc2ccc3c(/C=C/c4ccccc4)n[nH]c3c2)c1)c1cccc2cc[nH]c12", "inhibition at 0.01 µM": 68},
      {"smiles": "COC1CCCC(C(=O)Nc2cccc(C(=O)c3ccc4c(/C=C/c5ccccc5)n[nH]c4c3)c2)C1", "note": "(stereo not drawn)", "inhibition at 0.01 µM": 30},
      {"smiles": "CC(C)(C)[C@@H](O)C(=O)Nc1cccc(Nc2ccc3c(/C=C/c4ccccc4)n[nH]c3c2)c1", "inhibition at 0.01 µM": 10},
      {"smiles": "O=C(/C=C/C1C[C@H]2C=C[C@H]1C2)Nc1cccc(Oc2ccc3c(/C=C/c4ccccc4)n[nH]c3c2)c1", "note": "(stereo partly drawn)", "inhibition at 0.01 µM": 48}
    ]}
  ]
}
